Key:
[1] = Plasma uric acid, intestinal and renal clearance in oxonate-treated wild-type and Bcrp1 knockout mice; assay type: in vivo; settings: for Intestinal secretory clearance of endogenous uric acid / Renal clearance of endogenous uric acid: oxonate-treated; for Intestinal secretory clearance of endogenous uric acid: ileum closed loop; for Renal clearance of endogenous uric acid: metabolic cages
Protocol: Male Wistar rats (280±30 g body weight) used in the present study were treated with potassium oxonate, a uric acid oxidase (uricase) inhibitor. Oxonate-treated rats were established as described previously, [48]. Briefly, rats were anesthetized with 50% urethane (2 mL/kg) and infused with 0.9% NaCl, 0.5% oxonate and 4% mannitol solution from the femoral vein at the flow rate of 3 mL/hr. As a bolus, 0.9% NaCl, 1.5% oxonate and 4% mannitol solution was administered from the jugular vein at 6 mL/kg. After equilibration for 80 min, blood, urine and bile samples were collected at 20-min intervals. When [^14C]uric acid (2 µCi/rat) was used, it was intravenously injected from the jugular vein after oxonate treatment for 80 min. In order to suppress the uricolysis of [^14C]uric acid by intestinal flora, animals received orally non-absorbed antibiotics, polymyxin B, kanamycin, and vancomycin at daily doses of 50, 50 and 20 mg/kg, respectively, for 7 days before this animal study. Urine and bile were collected at 20-min intervals, and blood samples were drawn at 1, 5, 10, 20, 40, 60, 80, 100 and 120 min. Urine and bile were collected from bladder and bile ducts, respectively, and blood from the jugular vein. In mice, urine was collected for 24 hours by using metabolic cages (Natsume, Tokyo, Japan).
Mice were treated with oxonate (intraperitoneal injection of 200 mg/kg oxonate in 1% arabic gum solution) at 1 hr before injection of PB solution into the intestinal loop. Blood was withdrawn from the jugular vein at 1, 30 and 60 min. At 60 min, the intestinal luminal content was collected for measurement of intestinally secreted uric acid.
The following equation was used to calculate intestinal secretory clearance (µL/min/cm loop) and estimated total intestinal secretory clearance (CLintestine, estimated) (mL/min): [drawing 1] [drawing 2] [drawing 3] where A is the amount of uric acid secreted into the intestinal lumen of each loop for 60 min, L is the length of the intestine, and AUC is area under the plasma concentration-time curve.

hBCRP = molecular target: T1, hBCRP (Homo sapiens, UniProt Q9UNQ0); parameters: method as in PMID 20368174; settings: read-out: Km of uric acid to hBCRP; cited from earlier work
T1 construct: purchased GenoMembrane Inc. (Yokohama, Japan); host or cells: Sf9 cells
T1 sequence (Q9UNQ0 1-655): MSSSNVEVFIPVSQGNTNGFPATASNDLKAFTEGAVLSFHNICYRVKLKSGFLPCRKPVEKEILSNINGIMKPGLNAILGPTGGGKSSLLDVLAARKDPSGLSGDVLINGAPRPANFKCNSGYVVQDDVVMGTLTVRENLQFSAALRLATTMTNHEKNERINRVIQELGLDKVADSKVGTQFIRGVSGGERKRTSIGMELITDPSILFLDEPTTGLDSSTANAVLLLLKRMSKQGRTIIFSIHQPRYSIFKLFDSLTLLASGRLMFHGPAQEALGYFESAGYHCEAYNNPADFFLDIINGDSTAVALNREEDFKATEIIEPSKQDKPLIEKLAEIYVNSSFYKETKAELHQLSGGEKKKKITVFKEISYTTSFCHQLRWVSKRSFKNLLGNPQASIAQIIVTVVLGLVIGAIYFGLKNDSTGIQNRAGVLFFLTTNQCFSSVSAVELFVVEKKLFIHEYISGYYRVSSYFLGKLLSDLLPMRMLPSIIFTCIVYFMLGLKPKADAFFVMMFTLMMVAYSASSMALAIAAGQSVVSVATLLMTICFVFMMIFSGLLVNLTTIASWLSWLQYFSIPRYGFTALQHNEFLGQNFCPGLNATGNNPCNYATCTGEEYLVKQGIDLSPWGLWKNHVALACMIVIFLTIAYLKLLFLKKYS

O=c1[nH]c(=O)c2[nH]c(=O)[nH]c2[nH]1 [uric acid]
Intestinal secretory clearance of endogenous uric acid ([1]; Bcrp1−/− mice): 0.61 ± 0.08 µL/min/cm
Renal clearance of endogenous uric acid ([1]; Bcrp1−/− mice): 16.0 ± 1.77 µL/min
Plasma uric acid level in Bcrp1−/− mice compared with wild-type mice ([1]; after oxonate treatment): much higher
Intestinal secretory clearance of endogenous uric acid ([1]; wild-type mice): 1.04 ± 0.11 µL/min/cm
Renal clearance of endogenous uric acid ([1]; wild-type mice): 23.5 ± 1.42 µL/min
Km (hBCRP): 8.24 mM
